Assay results taken from patent publication US20190365776A1, “THERAPEUTIC AGENT FOR OCULAR FUNDUS DISEASE” (KYUSHU UNIVERSITY, NATIONAL UNIVERSITY CORPORATION, priority 2013, published 2019).

Tested on: Kimba (trVEGF029) mice
Assay: Kimba (trVEGF029) mice, fluorescein fundus angiography and optical coherence tomography
Type: in vivo
Conditions: 0.8% solution, ocular instillation three times a day for 2 weeks
Method: The effectiveness of the compound 1 in Kimba (trVEGF029) mice known as mice transgenic for VEGF gene, which develop retinal neovascularization, was examined in the following manner.
Compound 1 solution prepared in the same manner as in Example 1: 0.8% solution (instillation volume: 20 μL)
Test animals: Kimba mice (available from Lions Eye Institute Ltd., 6 mice per group)
One-month-old Kimba mice born on the same day were given saline (control) or the 0.8% compound 1 solution by ocular instillation three times a day for 2 weeks, and were then subjected to fluorescein fundus angiography and optical coherence tomography under anesthesia for evaluation. More specifically, in fluorescein fundus angiography, each of the mice was first given tropicamide by ocular instillation to cause mydriasis and then anesthetized by intraperitoneal administration of 100 mg/kg of Ketalar and 10 mg/kg of Selactar, given 6 μL/g of a contrast agent for fluorescein fundus angiography by intraperitoneal injection, and subjected to fluorescein fundus angiography using Heidelberg Retina Angiograph (HRA, Heidelberg, Germany). […]

## C[C@H]1CNCCCN1S(=O)(=O)c1cccc2cncc(F)c12 [compound 1, (S)-(−)-1-(4-fluoro-5-isoquinolinesulfonyl)-2-methyl-1,4-homopiperazine]
  edema (fluorescein fundus angiography / optical coherence tomography images): suppression of edema is observed
Optical coherence tomography, saline control 361.8±36.1
  average maximum retinal thickness (mean±standard error): 256.7±35.7 μm
